Reference: article PMC2771899, “Augmentation of Reverse Transcription by Integrase through an Interaction with Host Factor, SIP1/Gemin2 Is Critical for HIV-1 Infection” (PLoS ONE, 2009)
Where “and” joins values, the source holds several entries; their conditions need not be identical. Equal entries are not always repeated. Entries after “also recorded” stand apart in the source; their conditions may differ. Peptide text beside a SMILES is read from it. * marks the point of attachment. Cbz = O=C(OCc1ccccc1)*

Assays:
recombinant SIP1 (rSIP1) [1] = test: In vitro binding assay, nickel-column pull-down; conditions: 10 µg rSIP1 with 10 µg His-IN, 2 h, 4°C, nickel agarose, anti-SIP1 Western blot
[2] = tested on: IN-SIP1 interaction (His-IN, rSIP1); test: Dot-blot inhibition of IN-SIP1 interaction by peptide; type: binding, HIV-1
[3] = molecular target: T1, IN-SIP1 mediated RT activity (Homo sapiens, UniProt O14893); test: In vitro RT assay, inhibition of IN-SIP1 mediated RT activity by peptide; type: biochemical, HIV-1; conditions: 35 fmol RT, 3.5 fmol His-IN, 50 fmol rSIP1; for Effect on IN-SIP1 mediated RT activity: cDNA relative to control
T1 construct: the SIP1 gene was amplified from pTRE-SIP1 (kindly provided by Dr. G. Dreyfuss) by PCR and cloned into BamHI and EcoRI sites of pGEX-6P-2; GST (N, cleaved yes); made in house; host or cells: E. coli BL21 (GST-SIP1), E. coli M15 (His-IN)
T1 sequence (O14893 1-280): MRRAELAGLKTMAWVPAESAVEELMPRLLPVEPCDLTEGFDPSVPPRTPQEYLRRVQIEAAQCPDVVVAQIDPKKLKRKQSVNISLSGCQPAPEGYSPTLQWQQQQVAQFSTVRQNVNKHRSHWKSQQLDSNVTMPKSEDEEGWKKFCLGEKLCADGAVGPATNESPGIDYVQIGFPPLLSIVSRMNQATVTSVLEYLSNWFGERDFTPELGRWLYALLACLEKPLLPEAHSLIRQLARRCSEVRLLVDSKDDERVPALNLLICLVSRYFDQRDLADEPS

[4] = tested on: HIVNL43-luc/VSV-G pseudotypes; type: cell-based, HIV-1
rSIP1 = test: Dot-blot binding of peptide to SIP1; conditions: 40 or 400 nmol peptide on nitrocellulose, rSIP1 (5 µg), anti-SIP1 antibody
HIV-1 RT (GST-RTp66) = test: In vitro RT assay, stimulation by IN and SIP1; type: biochemical
Procedure: (§1) Figure 4 Augmentation of reverse transcription by HIV-1 IN and SIP1 in vitro. (A, B) The in vitro RT assay was carried out with 35 fmoles of HIV-1 RT (GST-RTp66) in the absence or presence of different amounts of full-length rIN (WT-IN). The truncated form of IN (IN1–70) that lack SIP1 binding domains was also tested in apparel as a control. The amount of HIV-1 cDNA was measured by real-time PCR using the HIV-1 R/U5 (A) or R/gag (B) primer pair. Significant augmentation (p<0.05) by WT-IN in the levels of HIV-1 cDNA compared with the level without IN (0 fmole) was indicated by asterisks. (C) The in vitro RT assay was carried out as described in (A) in either the absence or presence of […] of WT-IN, together with different amounts of rSIP1. (D) The in vitro RT assay was carried out with 3.5 fmoles of WT-IN (black bar) or IN1–70 (slash bar), in either the absence (−) or presence (+) of 50 fmoles of rSIP1. (E) The oligo(dT) cellulose resin was incubated with in vitro transcribed HIV-1 RNA for 1 h. After incubation, 10 µg of GST-RT in either the absence or presence of His-IN or rSIP1 was added and incubated for 2 h. After four washes with the IN storage buffer, precipitates were analyzed by immunoblot analysis using an anti-GST antibody.
For preparation of the viral RNA template for in vitro transcription, the DNA sequences corresponding to HIV-1 lentiviral genomic RNA (pCS-CDF-CG-PRE) were subcloned into pGEM-T vector (pGEM-CS-CDF). Then, the annealed oligonucleotides of TCGA(A)30G and TCGA(T)30C were inserted into the pGEM-CS-CDF vector at the Sal-I site for addition of the poly(A) tail (the pGEM-CS-CDF-PolyA). Synthesized HIV RNA with the poly(A) 30 tail were produced by in vitro transcription using RiboMAX™ Large Scale RNA Production System-T7 (Promega) with Ribo m^7 G Cap analog (Promega) to mimic the capped structure of mRNA. Transcription products of HIV-1 RNA (4.9 kb) were purified with spin columns MicroSpin™ G-25 Columns (American Biosciences), followed by gel-filtration using NAP-5 columns, (American Biosciences) and were used in the in vitro RT assay. The reverse transcription reactions were carried out in a final volume of 20 µl RT reaction buffer consisting of 50 mM Tris-HCl (pH 8.3), 75 mM KCl, 3 mM MgCl2, 10 mM DTT, 1 mM dNTPs, 0.04∼0.4 fmoles of HIV-1 RNA templates and 0.4∼4 fmoles of RNA primer, 3.5∼35 fmol HIV-1 RT (GST-RTp66). The reaction was carried out at 42°C for 30 min in either the absence or presence of different amount of His-IN and recombinant SIP1. The amount of the cDNA product was measured by real-time PCR using primers for the R/U5 or R/gag region.
Supplementary file pone.0007825.s004.pdf: Figure S4 Stoichiometry and order of IN and SIP1 for their stimulatory effect of cDNA synthesis. (A) The in vitro RT assay was carried out in the absence or presence of different amount of the His-IN (0.2 or 1 pmol) or recombinant SIP1 (0.2 or 1 pmol) as described in Figure 4. The amount of cDNA product was measured by real-time PCR using primers for HIV-1 R/U5 region. (B) The in vitro RT assay was carried out with 5 pmoles of His-IN in the absence or presence of different amount SIP1 (1 or 5 pmol). (C) The in vitro RT assay was carried out in the absence or presence of the His-IN and recombinant SIP1 with [α32P]dCTP and subjected to SDS-PAGE analysis in denatured condition. (D) In vitro RT assay was performed as described above, except that rIN with rRT and rSIP1 were pre-incubated on ice in different combinations and orders (inlet Table). Then, reaction was initiated by adding mixture containing the template RNA/PBS-primer and dNTPs. (0.10 MB PDF) Click here for additional data file.

recombinant SIP1 (rSIP1) [5] = molecular target: recombinant SIP1 (rSIP1) (UniProt O14893)
recombinant SIP1 (rSIP1) [6] = molecular target: recombinant SIP1 (rSIP1) (UniProt O14893); remark: listed apart in the source
RT on viral RNA = test: RT assembly on viral RNA; type: biochemical; conditions: HIV-1 RNA on oligo(dT) cellulose, 10 µg GST-RT, 2 h, immunoblot anti-GST (Figure 4E)
Procedure: as §1
Next, the effects of IN and SIP1 on the assembly of RT on viral RNA was examined. […] Levels of RT on viral RNA were determined by immunoblot assay. […]

RT = test: Direct binding to RT; parameters: species or system HIV-1; conditions: data not shown
IN-V5 = test: Expression level of IN-V5 in 293T cells by Western blotting
[7] = molecular target: wild type HIV-1 integrase with V5 epitope (IN-V5, WT-V5) (HIV-1 (pNL4-3)); test: cross-linking
[8] = molecular target: full-length His-tagged HIV-1 integrase Y15A (HIV-1 (pNL4-3)); test: not stated; data not shown; in vitro, recombinant IN-Y15A

1-90: His-tagged IN deletion form
Binding to rSIP1 in vitro (recombinant SIP1 (rSIP1) [1]): significant binding to rSIP1

IN231–251: synthetic peptide corresponding to the residues of 231–251 of HIV-1 IN
Peptide concentration that reduces His-WT binding to SIP1 to non-specific background levels ([2]; His-IN (10 µg) on nitrocellulose, 5 µg rSIP1): at least 50 µM | Interference with binding of full-length IN (His-WT) to SIP1 ([2]; His-IN (10 µg) on nitrocellulose, 5 µg rSIP1, peptide present): significantly interfered with the binding of the full-length IN (His-WT) to the SIP1 protein | Effect on IN-SIP1 interaction and its RT-stimulatory effects ([2]; summary statement): inhibit the IN-SIP1 interaction and its RT-stimulatory effects | IC50, inhibition of IN-SIP1 mediated RT activity ([3]; 42°C, 30 min, 20 µl, real-time PCR): ~1 nmoles per reaction | Effect on IN-SIP1 mediated RT activity [3]: significantly reduced the IN-SIP1 mediated RT activity in a dose-dependent manner | Effect on HIV-1 infectivity [4]: did not significantly reduce HIV-1 infectivity | Direct binding of peptide to rSIP1 (rSIP1): efficiently bound to rSIP1

IN1–70: truncated HIV-1 IN that lacks the central and C-terminal domains
Effect on level of cDNA products (R/U5) (HIV-1 RT (GST-RTp66); truncated IN, any dose, 35 fmoles RT, 42°C, 30 min, real-time PCR, P = 0.58∼0.98): no significant stimulatory effect at any dose

1-260: His-tagged IN deletion form
Binding to rSIP1 in vitro (recombinant SIP1 (rSIP1) [1]): significantly reduced binding to rSIP1

synthetic peptide IN60–80
HIV-1 infectivity (luciferase activity) in PMA-stimulated THP-1 cells with 100 µM peptide, relative to control; the pair blocked is IN with SIP1 (recombinant SIP1 (rSIP1) [5]): 20 % of control and 25 % of control | IC50 of inhibition of the IN-SIP1 mediated RT activity in the in vitro reverse transcription assay (35 fmol RT, 3.5 fmol His-IN, 50 fmol rSIP1); the pair blocked is m2 with m15 (pmoles per reaction) (recombinant SIP1 (rSIP1) [6]): 10

1-240: His-tagged IN deletion form
Binding to rSIP1 in vitro (recombinant SIP1 (rSIP1) [1]): significantly reduced binding to rSIP1

1-70: His-tagged IN deletion form
Binding to rSIP1 in vitro (recombinant SIP1 (rSIP1) [1]): did not bind to rSIP1

1-100: His-tagged IN deletion form
Binding to rSIP1 in vitro (recombinant SIP1 (rSIP1) [1]): significant binding to rSIP1

1-230: His-tagged IN deletion form
Binding to rSIP1 in vitro (recombinant SIP1 (rSIP1) [1]): significantly restored binding of IN to rSIP1

1-270: His-tagged IN, the 18 amino acids from the C-terminal deleted
Binding to rSIP1 in vitro (recombinant SIP1 (rSIP1) [1]): efficient interaction with rSIP1 in vitro

SIP1: survival motor neuron-interacting protein 1, recombinant
Level of RT on viral RNA (RT on viral RNA): enhanced RT assembly on viral RNA | Direct binding to RT (RT): cannot bind to RT directly | Effect of SIP1 on RT activity at higher amounts of IN (HIV-1 RT (GST-RTp66); 5 pmoles His-IN, SIP1 1 or 5 pmol (Figure S4B)): not evident; also recorded: could not observed when high amount of IN protein was present | Stimulation of RT activity by SIP1 with IN1–70 (HIV-1 RT (GST-RTp66); 3.5 fmoles IN1–70, 50 fmoles rSIP1, P = 0.98): no significant | Stimulation of RT activity by SIP1 in presence of full-length IN (HIV-1 RT (GST-RTp66); 3.5 fmoles WT-IN, 50 fmoles rSIP1, P = 0.001): Significant stimulation of RT activity | Enhancement of IN-stimulated RT activity by SIP1 (HIV-1 RT (GST-RTp66); WT-IN plus different amounts of rSIP1 (Figure 4C)): further enhanced by SIP1 in a dose-dependent manner | Effect of pre-incubation order on stimulatory effect (HIV-1 RT (GST-RTp66); pre-incubation of RT and IN before SIP1, on ice (Figure S4D)): most effective stimulatory effect | Stimulation of RT activity by SIP1 alone (HIV-1 RT (GST-RTp66); without IN, P = 0.69): no significant

1-60: His-tagged IN deletion form
Binding to rSIP1 in vitro (recombinant SIP1 (rSIP1) [1]): did not bind to rSIP1

IN154–174: control peptide, residues of 154–174, contains a motif critical for the interaction with LEDGF/p75 (MNKELKKIIGQVRDQAEHLKT; Integrase; UniProt P04585 1301-1321, looked up, fragment) [reference compound]
Effect on IN-SIP1 mediated RT activity [3]: inhibitory effect was not evident | Direct binding of peptide to rSIP1 (rSIP1): did not

synthetic peptide IN231–251
IC50 of inhibition of the IN-SIP1 mediated RT activity in the in vitro reverse transcription assay (35 fmol RT, 3.5 fmol His-IN, 50 fmol rSIP1); the pair blocked is m2 with m15 (nmoles per reaction) (recombinant SIP1 (rSIP1) [6]): 1

CC(C)C[C@@H](C=O)NC(=O)[C@H](CC(C)C)NC(=O)[C@H](CC(C)C)NC(=O)OCc1ccccc1 [MG132] (Cbz-Leu-Leu-Leu-aldehyde)
Effect of MG132 on level of WT-V5 (IN-V5; 10 µM MG-132): not changed | Effect of MG132 on expression level of IN mutants (IN-V5; 10 µM MG-132, Y15A-V5, K186Q-V5 and LL241,242AA-V5): restored the expression levels of the IN mutants | Effect of MG132 on level of IN-V5 in siSIP1-treated cells (IN-V5; siSIP1 treated): restored

wild type HIV-1 integrase with V5 epitope (IN-V5, WT-V5) (enzyme)
tetramer formation relative to control siRNA treated cells (SIP1 knock-down cells) [7]: 50%

1-80: His-tagged IN deletion form
Binding to rSIP1 in vitro (recombinant SIP1 (rSIP1) [1]): significant binding to rSIP1

full-length His-tagged HIV-1 integrase Y15A (enzyme)
stoichiometry N [8]: 2

1-220: His-tagged IN deletion form
Binding to rSIP1 in vitro (recombinant SIP1 (rSIP1) [1]): significantly restored binding of IN to rSIP1

1-250: His-tagged IN deletion form
Binding to rSIP1 in vitro (recombinant SIP1 (rSIP1) [1]): significantly reduced binding to rSIP1
